The source of these data is patent EP0899270B1, “Indolylmethyl-N,N'-bisacylpiperazines as neurokinine receptor antagonists” (Solvay Pharmaceuticals GmbH, priority 1997, dated 1999).

Where two headings read alike, the source gives them in different places.

The target in one assay is T1, humanen NK-1-Rezeptoren (Homo sapiens, UniProt P25103).
T1 construct: expressed in transfected cells; host or cells: CHO cells (membrane preparation)
Description: Binding of test substances to NK-1 receptors in vitro ([3H]-Substanz P displacement, CHO cell membranes). The note with it: [3H]-Substanz P as ligand; membranes of CHO cells expressing human NK-1 receptor; Ki calculated from IC50; read-out: Ki-Wert für die Affinität zu humanen NK-1-Rezeptoren. An excerpt:
1. Bestimmung des Bindungsvermögens der Testsubstanzen an NK-1-Rezeptoren in vitro.
Die Affinität der Testsubstanzen zu humanen NK-1-Rezeptoren wird in vitro gemessen. Bestimmt wird die Hemmung der Bindung des physiologischen Neurokinins (Substanz P) an Neurokinin-1-Rezeptoren.
Die Rezeptor-Bindungsstudien werden mit [^3H]-Substanz P als Ligand durchgeführt. Für den Bindungsversuch werden verschiedene Proben einer Membranpräparation von CHO-Zellen (= […] des chinesischen Hamsters, […]), die den humanen NK-1-Rezeptor exprimieren, mit einer Lösung des markierten Liganden inkubiert, wobei die Inkubationsansätze keine Testsubstanz oder Zusätze unterschiedlicher Konzentrationen an Testsubstanz enthalten. Anschließend wird in den Proben jeweils eine Trennung von gebundenem und freiem Liganden mit Hilfe einer Glasfiber-Filtration vorgenommen. Die im Filter verbleibende Fraktion wird mehrmals mit Pufferlösung gewaschen und anschließend wird die Radioaktivität der im Filter verbliebenen Fraktion mit einem Beta-Scintillationszähler gemessen. Es wird als IC50 der jeweiligen Testsubstanz diejenige Konzentration bestimmt, welche eine halbmaximale Verdrängung des gebundenen Liganden bewirkt. Aus dieser wird die entsprechende Inhibitionskonstante (Ki-Wert) der Testsubstanz berechnet. […]

In the next assay the target is T2, humanen NK-2-Rezeptoren (Homo sapiens, UniProt P21452).
T2 sequence (P21452 1-398): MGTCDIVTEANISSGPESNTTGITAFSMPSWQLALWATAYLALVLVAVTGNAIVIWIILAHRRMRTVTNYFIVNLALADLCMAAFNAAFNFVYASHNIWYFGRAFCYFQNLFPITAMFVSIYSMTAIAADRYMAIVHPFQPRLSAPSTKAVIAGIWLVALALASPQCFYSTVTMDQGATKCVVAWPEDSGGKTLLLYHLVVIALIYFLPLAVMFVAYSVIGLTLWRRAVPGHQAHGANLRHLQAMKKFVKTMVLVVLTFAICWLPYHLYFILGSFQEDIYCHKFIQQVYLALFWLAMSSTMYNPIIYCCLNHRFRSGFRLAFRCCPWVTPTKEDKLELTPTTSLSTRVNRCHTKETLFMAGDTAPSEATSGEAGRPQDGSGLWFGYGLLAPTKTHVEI
Description: Binding of test substances to NK-2 receptors in vitro (SR 48,968 displacement, CHO cell membranes). Conditions: SR 48,968 as ligand; membranes of CHO cells expressing human NK-2 receptor; read-out: Ki (Affinität der Testsubstanzen zu humanen NK-2-Rezeptoren). An excerpt:
2. Bestimmung des Bindungsvermögens der Testsubstanzen an NK-2-Rezeptoren in vitro
Die Affinität der Testsubstanzen zu humanen NK-2-Rezeptoren wird in vitro gemessen. Bestimmt wird die Hemmung der Bindung der Verbindung SR-48,968 an NK-2-Rezeptoren. SR-48,968 ist eine als spezifischer NK-2-Antagonist bekannte synthetisch hergestellte Verbindung.
Die Rezeptor-Bindungsstudien werden mit SR 48,968 als Ligand durchgeführt. Die Versuchsdurchführung entspricht der im pharmakologischen Test zur Bestimmung des Bindungsvermögens der Testsubstanzen an NK-1-Rezeptoren in vitro angegebenen Methode. Im Unterschied hierzu werden nunmehr aber verschiedene Proben einer Membranpräparation von CHO-Zellen verwendet, welche den humanen NK-2-Rezeptor exprimieren. In diesem Testmodell zeigten die in der folgenden Tabelle 1 aufgeführten Beispielsubstanzen die angegebenen Ki-Werte für die Affinität zu humanen NK-2-Rezeptoren: Tabelle 1: Affinität der Testsubstanzen zu humanen NK-2-Rezeptoren

The target of the next assay is T3, NK-1-Rezeptor (Cavia porcellus, UniProt P30547).
T3 construct: Ringpräparaten der Aorta von Pirbright-White Meerschweinchen; from tissue; host or cells: isolated aorta rings of Pirbright-White guinea pigs
Description: Functional NK-1 antagonism on isolated guinea pig aorta rings in vitro (inhibition of Substanz P induced tone relaxation). Also on record: species or system Pirbright-White Meerschweinchen. Conditions: aorta rings toned with Phenylephrin, stimulated with 0,01 µmol Substanz P; read-out: IC50 (halbmaximale Hemmung der Tonusrelaxation). An excerpt: 3. Bestimmung des funktionellen NK-1-Antagonismus der Testsubstanzen an isoliertem Gewebe vom Meerschweinchen in vitro
Die NK-1-Rezeptor-antagonisierende Wirkung der Testsubstanzen wurde an isolierten, in einer oxygenierten Nährlösung gehaltenen Ringpräparaten der Aorta von Pirbright-White Meerschweinchen in vitro gemessen. Bestimmt wird die Hemmung der nach Stimulierung mit dem NK-1-Agonisten Substanz P hervorgerufenen Tonusrelaxation der Aortapräparate durch die Testsubstanzen.
Zur Messung der Kontraktion der Gefäßmuskulatur werden die Präparate an einem Haken fixiert, durch einen Faden mit einem Kraftmessungsgerät verbunden und die Kontraktionen werden jeweils an einem Schreiber registriert. Die Aortapräparate werden mit Phenylephrin tonisiert. Anschließend werden die NK-1-Rezeptoren der Präparate vor und nach der Gabe der Prüfsubstanz mit 0,01 µmol Substanz P stimuliert, wodurch eine Relaxation des Tonus herbeigeführt wird. Die Relaxationen vor und nach Gabe der Prüfsubstanz werden in Prozent quantifiziert. Als Kenngröße wird die Konzentration der halbmaximalen Hemmung (= IC50) errechnet, welche diejenige Konzentration angibt, bei der eine halbmaximale Hemmung der Tonusrelaxation eintritt.
In diesem Testmodell zeigten die in der folgenden Tabelle 2 aufgeführten Beispielsubstanzen die angegebenen IC50-Werte für die halbmaximale Hemmung : Tabelle 2: Funktioneller NK-1-Antagonismus der Testsubstanzen an isoliertem Meerschweinchen-Gewebe

Assay [1] concerns durch Substanz P induzierter Blutdrucksenkung. Description: Substance P antagonistic effect in vivo (Substanz P induced hypotension in guinea pigs). Also on record: species or system Meerschweinchen. Conditions: Cavia porcellus, 1 h, 50 pmol Substanz P i.v., evaluated after 60 minutes, read-out: ED50 (50%ige Hemmung der Substanz P-induzierten Blutdrucksenkung). The source says:
4. Bestimmung der Substanz-P-antagonistischen Wirkung der Testsubstanzen in vivo.
Zum Nachweis der Substanz-P-antagonistischen Wirkung der Testsubstanzen wurde als Standardtestmodell für Substanz-P-induzierte pharmakologische Effekte die durch Substanz-P-Applikation hervorgerufene Hypotension in Meerschweinchen verwendet. Es wurde die Hemmwirkung der Testsubstanzen gegenüber durch Substanz P induzierter Blutdrucksenkung nach intravenöser (= i.v.) und intraduodenaler (= i.d.) Applikation der Testsubstanzen bestimmt.
Männlichen Meerschweinchen werden in Narkose (Ketamin 67 mg/ kg, Xylazine 13 mg/kg) jeweils ein Katheter in eine Arteria Carotis Communis und in eine Vena Jugularis implantiert. Der arterielle Katheter dient zur Blutdruckmessung. Die Messung erfolgt mit einem Statham 23d/B Druckaufnehmer. Über den venösen Zugang erfolgt die Gabe von Substanz P bzw. bei intravenöser Gabe auch die Applikation der Testsubstanz. Nach einer Äquilibrierungsphase von 20 Minuten werden 50 pmol/Tier Substanz P als Bolus i.v. appliziert. Danach erfolgt die Gabe der Testsubstanz. Bei der i.v. Untersuchung wird die Testsubstanz in Dosierungen von 0.1, 0.46 bzw. 1.0 µmol/kg einer Gruppe von jeweils 4 bis 6 Tieren intravenös appliziert. Die Kontrollgruppe erhält die entsprechende Menge einer physiologischen Kochsalzlösung. […]

T3 sequence (P30547 whole entry): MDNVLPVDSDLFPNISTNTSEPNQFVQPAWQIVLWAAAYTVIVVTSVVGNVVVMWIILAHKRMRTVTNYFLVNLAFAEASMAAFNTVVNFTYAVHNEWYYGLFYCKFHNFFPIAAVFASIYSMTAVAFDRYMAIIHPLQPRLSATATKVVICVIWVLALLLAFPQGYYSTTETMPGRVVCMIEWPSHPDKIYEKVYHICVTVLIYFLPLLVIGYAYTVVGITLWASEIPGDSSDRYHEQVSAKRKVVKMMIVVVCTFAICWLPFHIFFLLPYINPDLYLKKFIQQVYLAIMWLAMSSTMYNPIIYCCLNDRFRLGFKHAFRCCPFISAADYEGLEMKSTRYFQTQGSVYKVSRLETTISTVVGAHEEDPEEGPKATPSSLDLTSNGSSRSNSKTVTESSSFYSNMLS
T1 sequence (P25103 whole entry): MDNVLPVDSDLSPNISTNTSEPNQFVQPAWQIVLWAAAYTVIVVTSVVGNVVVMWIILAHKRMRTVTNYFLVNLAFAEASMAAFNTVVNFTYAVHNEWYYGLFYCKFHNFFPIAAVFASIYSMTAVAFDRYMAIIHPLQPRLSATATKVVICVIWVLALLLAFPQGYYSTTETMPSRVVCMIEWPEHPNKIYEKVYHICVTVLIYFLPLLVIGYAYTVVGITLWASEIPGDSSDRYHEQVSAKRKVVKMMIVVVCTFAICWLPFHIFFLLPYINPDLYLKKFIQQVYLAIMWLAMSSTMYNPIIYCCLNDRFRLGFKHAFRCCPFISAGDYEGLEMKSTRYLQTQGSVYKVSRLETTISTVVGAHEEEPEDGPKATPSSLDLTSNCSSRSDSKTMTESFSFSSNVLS

Usually Ki stands for the dissociation constant of the complex between target and ligand, obtained from inhibition or displacement. What is called IC50 is the concentration at which inhibition is half-maximal. What is called ED50 is the midpoint of the dose-response relation. For `COc1ccccc1CNCCNC(=O)N1CCN(C(=O)c2cc(C(F)(F)F)cc(C(F)(F)F)c2)[C@H](Cc2c[nH]c3ccccc23)C1` [Beispiel 1, (2R)-1-[3,5-Bis(trifluormethyl)benzoyl]-2-(1H-indol-3-ylmethyl)-4-(2-[N-(2-methoxybenzyl)aminoethyl]aminocarbonyl}piperazin], the Ki at humanen NK-1-Rezeptoren is 2.1 nM; at humanen NK-2-Rezeptoren, 60 nM. For the same compound, on NK-1-Rezeptor, the IC50 came out at 1 nM. For the same compound, the ED50 came out at 0.08 µmol/kg in assay [1] (i.d.-Applikation) and 0.2 µmol/kg in assay [1] (iv, i.v.-Applikation).

`COc1ccccc1CN(C)CCNC(=O)N1CCN(C(=O)c2cc(C(F)(F)F)cc(C(F)(F)F)c2)C(Cc2c[nH]c3ccccc23)C1` (stereo not drawn) [Beispiel 2]: at humanen NK-2-Rezeptoren, the Ki amounted to 50 nM. Besides, the IC50 at NK-1-Rezeptor is 1.2 nM.

`O=C(NCCNCc1ccc(F)cc1)N1CCN(C(=O)c2cc(C(F)(F)F)cc(C(F)(F)F)c2)C(Cc2c[nH]c3ccccc23)C1` (stereo not drawn) [Beispiel 3]: the Ki at humanen NK-2-Rezeptoren was determined as 300 nM. For the same compound, at NK-1-Rezeptor, the IC50 was determined as 1.5 nM.
